Assay [1] has as its system MOLM14 cells. Put plainly: Proliferation assay (spheroid assay) in MOLM14. It counts as cell-based. Conditions: Homo sapiens, MOLM-14, 192 h; MOLM14 (MLL-AF9), 8 days, confluence as measure of spheroid size; read-out: spheroid assay_OneTime MOLM14 IC50. As for the experimental part: The anti-proliferative effect of menin/MLL protein/protein interaction inhibitor test compounds was assessed in human leukemia cell lines. The cell line MOLM14 harbors a MLL translocation and expresses the MLL fusion proteins MLL-AF9, respectively, as well as the wildtype protein from the second allele. […] KO-52 was used as a control cell line containing two MLL (KMT2A) wildtype alleles in order to exclude compounds that display general cytotoxic effects.
MOLM14 cells were cultured in RPMI-1640 (Sigma Aldrich) supplemented with 10% heat-inactivated fetal bovine serum (HyClone), 2 mM L-glutamine (Sigma Aldrich) and 50 µg/ml gentamycin (Gibco). KO-52 cell lines were propagated in alpha-MEM (Sigma Aldrich) supplemented with 20% heat-inactivated fetal bovine serum (HyClone), 2 mM L-glutamine (Sigma Aldrich) and 50 µg/ml gentamycin (Gibco).
In order to assess the anti-proliferative effects, 200 MOLM14 cells, or 300 KO-52 cells were seeded in 200 μl media per well in 96-well round bottom, ultra-low attachment plates (Costar, catalogue number 7007). Cell seeding numbers were chosen based on growth curves to ensure linear growth throughout the experiment. Test compounds were added at different concentrations and the DMSO content was normalized to 0.3%. Cells were incubated for 8 days at 37° C. and 5% CO2. Spheroid like growth was measured in real-time by live-cell imaging (IncuCyteZOOM, Essenbio, 4× objective) acquiring images at day 8. Confluence (%) as a measure of spheroid size was determined using an integrated analysis tool.
In order to determine the effect of the test compounds over time, the confluence in each well as a measure of spheroid size, was calculated. Confluence of the highest dose of a reference compound was used as baseline for the LC (Low control) and the confluence of DMSO treated cells was used as 0% cytotoxicity (High Control, HC).
Absolute IC50 values were calculated as percent change in confluence as follows:
LC=Low Control: cells treated with e.g. 1 μM of the cytotoxic agent staurosporin, or e.g. cells treated with a high concentration of an alternative reference compound
GraphPad Prism (version 7.00) was used to calculate the IC50. Dose-response equation was used for the plot of % Effect vs Log10 compound concentration with a variable slope and fixing the maximum to 100% and the minimum to 0%.

Assay [2] concerns the target T1, Menin/MLL (Homo sapiens, UniProt O00255, T541A).
T1 construct: Menin (a.a 1-610-6xhis tag)
T1 sequence (O00255 with tags, fused parts or gaps T541A): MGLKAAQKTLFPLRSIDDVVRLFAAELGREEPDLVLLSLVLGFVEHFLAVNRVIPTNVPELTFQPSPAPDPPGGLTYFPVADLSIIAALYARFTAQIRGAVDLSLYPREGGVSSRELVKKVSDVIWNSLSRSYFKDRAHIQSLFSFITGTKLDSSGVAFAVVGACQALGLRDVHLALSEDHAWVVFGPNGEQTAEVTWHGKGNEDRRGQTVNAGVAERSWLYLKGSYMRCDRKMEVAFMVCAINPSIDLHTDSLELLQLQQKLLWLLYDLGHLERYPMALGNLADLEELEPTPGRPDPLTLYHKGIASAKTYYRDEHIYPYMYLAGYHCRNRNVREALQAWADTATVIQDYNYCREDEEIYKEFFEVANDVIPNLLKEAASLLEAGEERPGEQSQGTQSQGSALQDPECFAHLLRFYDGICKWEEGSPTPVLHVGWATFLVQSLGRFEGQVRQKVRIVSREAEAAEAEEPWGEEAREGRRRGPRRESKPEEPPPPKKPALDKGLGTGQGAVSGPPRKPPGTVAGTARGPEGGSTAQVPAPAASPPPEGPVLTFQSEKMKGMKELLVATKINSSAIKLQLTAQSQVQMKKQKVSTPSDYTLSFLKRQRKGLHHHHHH
Put plainly: Menin/MLL homogenous time-resolved fluorescence (HTRF) assay. In kind it is binding. Conditions: 30 min incubation of test compound with terbium chelate-labeled menin; FITC-MBM1 peptide. The procedure:
1) Menin/MLL homogenous time-resolved fluorescence (HTRF) assay
To an untreated, white 384-well microtiter plate was added 40 nL 200X test compound in DMSO and 4 μL 2X terbium chelate-labeled menin (vide infra for preparation) in assay buffer (40 mM Tris-HCl, pH 7.5, 50 mM NaCl, 1 mM DTT (dithiothreitol) and 0.05% Pluronic F-127). After incubation of test compound and terbium chelate-labeled menin for 30 min at ambient temperature, 4 μL 2X FITC-MBM1 peptide (FITC-β-alanine-SARWRFPARPGT-NH2 (SEQ ID NO: 2)) (“FITC” means fluorescein isothiocyanate) in assay buffer was added, the microtiter plate centrifuged at 1000 rpm for 1 min and the assay mixtures incubated for 15 min at ambient temperature. The relative amount of menin FITC--MBM1 complex present in an assay mixture is determined by measuring the homogenous time-resolved fluorescence (HTRF) of the terbium/FITC donor/acceptor fluorphore pair using an EnVision microplate reader (ex. 337 nm/terbium em. 490 nm/FITC em. 520 nm) at ambient temperature. The degree of fluorescence resonance energy transfer (the HTRF value) is expressed as the ratio of the fluorescence emission intensities of the FITC and terbium fluorophores (F^em 520 nm/F^em 490 nm). The final concentrations of reagents in the binding assay are 200 pM terbium chelate-labeled menin, 75 nM FITC-MBM1 peptide and 0.5% DMSO in assay buffer. Dose-response titrations of test compounds are conducted using an 11 point, four-fold serial dilution scheme, starting typically at 10 μM.
Compound potencies were determined by first calculating % inhibition at each compound concentration according to equation 1: […]
Where LC and HC are the HTRF values of the assay in the presence or absence of a saturating concentration of a compound that competes with FITC-MBM1 for binding to menin, and HTRF^compound is the measured HTRF value in the presence of the test compound. HC and LC HTRF values represent an average of at least 10 replicates per plate.
Where Bottom and Top are the lower and upper asymptotes of the dose-response curve, respectively, IC50 is the concentration of compound that yields 50% inhibition of signal and h is the Hill coefficient. IC50 values below 0.1 nM in the HTRF assay were reported as 0.1 nM in the Table below (detection limit).
Preparation of Terbium cryptate labeling of Menin: Menin (a.a 1-610-6xhis tag, 2.3 mg/mL in 20 mM Hepes (2-[4-(2-Hydroxyethyl)-1-piperazinyl]ethane sulfonic acid), 80 mM NaCl, 5 mM DTT (Dithiothreitol), pH 7.5) was labeled with terbium cryptate as follows. 200 μg of Menin was buffer exchanged into lx Hepes buffer. 6.67 μM Menin was incubated with 8-fold molar excess NHS (N-hydroxysuccinimide)-terbium cryptate for 40 minutes at room temperature. Half of the labeled protein was purified away from free label by running the reaction over a NAP5 column with elution buffer (0.1M Hepes, pH 7+0.1% BSA (bovine serum albumin)). The other half was eluted with 0.1 M phosphate buffered saline (PBS), pH7. 400 μl of eluent was collected for each, aliquoted and frozen at −80° C. The final concentration of terbium-labeled Menin protein was 115 μg/mL in Hepes buffer and 85 μg/mL in PBS buffer, respectively.
A general note: In TR-FRET formats the signal depends on donor and acceptor labels being close together.

We go through 24 compounds from US20250333421A1, “PYRIDAZINES OR 1,2,4-TRIAZINES SUBSTITUTED BY SPIROCYCLIC AMINES” (Janssen Pharmaceutica NV, priority 2021, published 2025).

SMILES strings stand for the structures. Where only a bound is given, the exact number is not on record here.

In general, IC50 refers to the midpoint of a concentration-inhibition curve. On to `COCCN(C)CCC[C@H](C(C)C)N1CC2(CCN(c3ncnnc3Oc3ccc(F)cc3C(=O)N(CCN)C(C)C)C2)C1` (single isomer, unassigned) [Compound 9], for which the IC50 in assay [1] came to 190 nM.

Turning to `CCN(C(=O)c1cc(F)ccc1Oc1nncnc1N1CCC2(C1)CN(C(CCCN(C)CCOCCCCN)C(C)C)C2)C(C)C` (single isomer, unassigned) [Compound 6], the IC50 in assay [1] worked out at 100 nM.

In turn, `CCN(CC(C)O)C(=O)c1cc(F)ccc1Oc1nncnc1N1CCC2(C1)CN(C(CCCN(C)CCOC)C(C)C)C2` (single isomer, unassigned) [Compound 16] had a 50% inhibitory concentration (IC50) in assay [2] of 2.97 nM.

In assay [2], `CCN(C[C@@H](C)O)C(=O)c1cc(F)ccc1Oc1nncnc1N1CCC2(C1)CN([C@H](CCCN(C)CCOC)C(C)C)C2` (single isomer, unassigned) [Compound 18] showed an IC50 of 35.5 nM.

`CCN(C(=O)c1cc(F)ccc1Oc1nncnc1N1CCC2(C1)CN(C(CCCN(C)CCOC)C(C)(C)C)C2)C(C)C` (single isomer, unassigned) [Compound 13a] came in with an IC50 in assay [2] of 1.97 nM.

Turning to `CCN(CC(C)O)C(=O)c1cc(F)ccc1Oc1nncnc1N1CCC2(C1)CN(C(CCCN(C)CCOC)C(C)C)C2` (stereo not shown) [Compound 14], the half-inhibitory concentration (IC50) in assay [1] was > 940 nM; in assay [2] it was 6.66 nM.

The compound `CCN(CC(C)O)C(=O)c1cc(F)ccc1Oc1nncnc1N1CCC2(C1)CN(C(CCCN(C)CCOC)C(C)C)C2` (single isomer, unassigned) [Compound 17] registered an IC50 in assay [2] of 79.3 nM.

Take `CC(C)N(C(=O)c1cc(F)ccc1Oc1nncnc1N1CCC2(C1)CN(C(CC(O)CN(C)C)C(C)(C)C)C2)C(C)C` (single isomer, unassigned) [Compound 23]: the half-inhibitory concentration (IC50) in assay [2] worked out at 4.57 nM.

In assay [2], `CCN(C)C[C@@H](O)C[C@H](N1CC2(CCN(c3ncnnc3Oc3ccc(F)cc3C(=O)N(CC)C(C)C)C2)C1)C(C)(C)C` (single isomer, unassigned) [Compound 25] registered an IC50 of 6.46 nM.

On to `COCCN(C)CCC[C@H](C(C)C)N1CC2(CCN(c3ncnnc3Oc3ccc(F)cc3C(=O)N(CCNC(C)=O)C(C)C)C2)C1` [Compound 15], for which the IC50 in assay [1] stood at 470 nM; in assay [2] it was 0.331 nM.

For the compound `C#CCN(C)CCCC(C(C)C)N1CC2(CCN(c3ncnnc3Oc3ccc(F)cc3C(=O)N(CC)C(C)C)C2)C1` (single isomer, unassigned) [Compound 11], the IC50 in assay [1] was 60 nM.

`CCN(C(=O)c1cc(F)ccc1Oc1nncnc1N1CCC2(C1)CN(C(CCCN(C)CCOC)C(C)(C)C)C2)C(C)C` (single isomer, unassigned) [Compound 13b]: the IC50 in assay [1] turned out to be 21 nM.

With `COCCN(C)CCC[C@H](C(C)C)N1CC2(CCN(c3ncnnc3Oc3ccc(F)cc3C(=O)N(CCO)C(C)C)C2)C1` [Compound 19], in assay [1], the IC50 came to 32 nM.

With `CCN(C(=O)c1cc(F)cc(Br)c1Oc1nncnc1N1CCC2(C1)CN([C@H](CCCN(C)CCOC)C(C)C)C2)C(C)C` [Compound 21], in assay [2], the midpoint of inhibition, the IC50, lay at 13.7 nM.

As to `CCN(C(=O)c1cc(F)ccc1Oc1nncnc1N1CCC2(C1)CN(C(CCCN(C)CCOC(F)F)C(C)C)C2)C(C)C` (single isomer, unassigned) [Compound 8], the IC50 in assay [1] amounted to 16 nM; in assay [2], 0.182 nM.

`CCN(C)C[C@H](O)C[C@@H](N1CC2(CCN(c3ncnnc3Oc3ccc(F)cc3C(=O)N(CC)C(C)C)C2)C1)C(C)(C)C` (single isomer, unassigned) [Compound 24] gave a half-maximal inhibitory concentration (IC50) in assay [2] of 35.5 nM.

In the case of `CCN(C(=O)c1cc(F)ccc1Oc1nncnc1N1CCC2(C1)CN(C(CCCN(C)CCOCCN)C(C)C)C2)C(C)C` (single isomer, unassigned) [Compound 5], the IC50 in assay [1] is 220 nM; in assay [2] it was 0.11 nM.

Consider `COCCN(C)CCC[C@H](C(C)C)N1CC2(CCN(c3ncnnc3Oc3ccc(F)cc3C(=O)N(CCCCN)C(C)C)C2)C1` (single isomer, unassigned) [Compound 10], for which the IC50 in assay [1] stood at 460 nM.

`CC(C)N(C(=O)c1cc(F)ccc1Oc1nncnc1N1CCC2(C1)CN(C(CC(O)CN(C)C)C(C)(C)C)C2)C(C)C` (single isomer, unassigned) [Compound 22]: the IC50 in assay [2] was determined as 18.2 nM.

As to `CCN(C(=O)c1cc(F)ccc1Oc1nncnc1N1CCC2(C1)CN(C(CCCNCCOC(F)(F)F)C(C)C)C2)C(C)C` (single isomer, unassigned) [Compound 4], the half-inhibitory concentration (IC50) in assay [1] was found to be 21 nM; in assay [2], 0.208 nM.

Take `CCN(C(=O)c1cc(F)ccc1Oc1nncnc1N1CCC2(C1)CN(C(CCCNCCSC)C(C)C)C2)C(C)C` (single isomer, unassigned) [Compound 3]: the IC50 in assay [1] was found to be 5 nM.

In the case of `CCN(C(=O)c1cc(F)ccc1Oc1nncnc1N1CCC2(C1)CN([C@H](CCN(C)CCS(N)(=O)=O)C(C)C)C2)C(C)C` (single isomer, unassigned) [Compound 20], the 50% inhibitory concentration (IC50) worked out at 430 nM in assay [1] and 0.29 nM in assay [2].

Take `CCN(C(=O)c1cc(F)ccc1Oc1nncnc1N1CCC2(C1)CN(C(CCCNCCOC(F)F)C(C)C)C2)C(C)C` (single isomer, unassigned) [Compound 7]: the half-inhibitory concentration (IC50) in assay [1] was 7 nM; in assay [2], 0.121 nM.

With `C=CCN(C)CCCC(C(C)C)N1CC2(CCN(c3ncnnc3Oc3ccc(F)cc3C(=O)N(CC)C(C)C)C2)C1` (single isomer, unassigned) [Compound 12], the IC50 in assay [1] is 29 nM.
